Earlier results, collected in PubChem BioAssay AID1259409 (Chemical Carcinogenesis Research Information System (CCRIS), 2018).

System: rodent chemically induced tumor inhibition, incidence and multiplicity
Test: CCRIS tumor inhibitor studies
Settings: Dose [Inhibitor]: 0, Route [Inhibitor]: ORAL, Species: RAT, Promoter: NONE USED

**Q.** With `C[C@]12CC[C@H](O)CC1=CC[C@@H]1[C@@H]2CC[C@]2(C)C(=O)CC[C@@H]12` as the compound, how does the “tumour outcome (control, treated, inhibition, significance)” value (Carcinogen: DIETHYLNITROSAMINE, 55-18-5, N-METHYL-N-NITROSOUREA, 684-93-5, N-BUTYL-N-(4-HYDROXYBUTYL)NITROSAMINE, 3817-11-6, 1,2-DIM, Carcinogen: DIETHYLNITROSAMINE, 55-18-5, N-METHYL-N-NITROSOUREA, 684-93-5, N-BUTYL-N-(4-HYDROXYBUTYL)NITROSAMINE, 3817-11-6, 1,2-DIM, 0.3% IND DIET FOR 23 WK BEGINNING 1 WK POST CARCINOGEN TREATMENT (STUDY DURATION: 28 WK), Strain/Sex: F344/MALE, Target Tissue: Type of Lesion: URINARY BLADDER: PAPILLOMA, Dose [Carcinogen]: 100 MG/KG BW DEN ONCE, 20 MG/KG BW MNU ONCE ON DAYS 6,9, AND 12, 0.05% BBN IN DRINKING WATER FOR FIRST TWO WK, 40 MG/KG, Dose [Carcinogen]: 100 MG/KG BW DEN ONCE, 20 MG/KG BW MNU ONCE ON DAYS 6,9, AND 12, 0.05% BBN IN DRINKING WATER FOR FIRST TWO WK, 40 MG/KG) read?
**A.** 2/20 (10%), 1/20 (5%), 50%, not significant

**Q.** What about the outcome (Carcinogen: DIETHYLNITROSAMINE, 55-18-5, N-METHYL-N-NITROSOUREA, 684-93-5, N-BUTYLY-N-(4-HYDROXYBUTYL)NITROSAMINE, 3817-11-6, 1,2-DI, Carcinogen: DIETHYLNITROSAMINE, 55-18-5, N-METHYL-N-NITROSOUREA, 684-93-5, N-BUTYLY-N-(4-HYDROXYBUTYL)NITROSAMINE, 3817-11-6, 1,2-DI, 0.3% IN DIET FOR 23 WK BEGINNING 1 WK POST CARCINOGEN TREATMENT (STUDY DURATION: 28 WK), Strain/Sex: F344/MALE, Target Tissue: Type of Lesion: LIVER: CARCINOMA, Dose [Carcinogen]: 100 MG/KG BW DEN ONCE, 20 MG/KG BW MNU ONCE ON DAYS 6,9, AND 12, 0.05% BBN IN DRINKING WATER FOR FIRST TWO WK, 40 MG/KG, Dose [Carcinogen]: 100 MG/KG BW DEN ONCE, 20 MG/KG BW MNU ONCE ON DAYS 6,9, AND 12, 0.05% BBN IN DRINKING WATER FOR FIRST TWO WK, 40 MG/KG) of the same compound?
**A.** 0/20 (0%), 2/20 (10%), 100%, not significant

**Q.** And the “tumour outcome (control, treated, inhibition, significance)” value (Carcinogen: DIETHYLNITROSAMINE, 55-18-5, N-METHYL-N-NITRSOUREA, 684-93-5, N-BUTYL-N-(4-HYDROXYBUTYL)NITROSAMINE, 3817-11-6, 1,2-DIME, Carcinogen: DIETHYLNITROSAMINE, 55-18-5, N-METHYL-N-NITRSOUREA, 684-93-5, N-BUTYL-N-(4-HYDROXYBUTYL)NITROSAMINE, 3817-11-6, 1,2-DIME, 0.3% IN DIET FOR 23 WK BEGINNING 1 WK POST CARCINOGEN TREATMENT (STUDY DURATION :28 WK), Strain/Sex: F344/MALE, Target Tissue: Type of Lesion: LARGE INTESTINE: ADENOCARCINOMA, Dose [Carcinogen]: 100 MG/KG BW DEN ONCE, 20 MG/KG BW MNU ONCE ON DAYS 6,9, AND 12, 0.05% BBN IN DRINKING WATER FOR FIRST TWO WK, 40 MG/KG, Dose [Carcinogen]: 100 MG/KG BW DEN ONCE, 20 MG/KG BW MNU ONCE ON DAYS 6,9, AND 12, 0.05% BBN IN DRINKING WATER FOR FIRST TWO WK, 40 MG/KG)?
**A.** 2/20 (10%), 0/20 (0%), 100%, not significant

**Q.** What about the “tumour outcome (control, treated, inhibition, significance)” value (Carcinogen: DIMETHYLNITROSAMINE, 62-75-9, 0.6% IN DIET BEGINNING 2 WK POST CARCINOGEN DOSE AND CONTINUING FOR 26 WK (STUDY DURATION: 120 WK), Strain/Sex: WISTAR/MALE, Target Tissue: Type of Lesion: KIDNEY: ADENOCARCINOMA, Dose [Carcinogen]: 30 MG/KG ONCE) of the same compound?
**A.** 12/30 (40%), 24/31 (77%), -93%, p<0.01

**Q.** What about the “tumour outcome (control, treated, inhibition, significance)” value (Carcinogen: DIMETHYLNITROSAMINE, 62-75-9, 0.6% IN DIET BEGINNING 2 WK POST CARCINOGEN DOSE AND CONTINUING FOR 26 WK (STUDY DURATION: 120 WK), Strain/Sex: WISTAR/MALE, Target Tissue: Type of Lesion: KIDNEY: ADENOMA, Dose [Carcinogen]: 30 MG/KG ONCE) of the same compound?
**A.** 12/30 (40%), 17/31 (55%), -38%, not calculated

**Q.** And the “tumour outcome (control, treated, inhibition, significance)” value (Carcinogen: DIMETHYLNITROSAMINE, 62-75-9, 0.6% IN DIET BEGINNING 2 WK POST CARCINOGEN DOSE AND CONTINUING FOR 26 WK (STUDY DURATION: 120 WK), Strain/Sex: WISTAR/MALE, Target Tissue: Type of Lesion: KIDNEY: EPITHELIAL TUMOR, Dose [Carcinogen]: 30 MG/KG ONCE)?
**A.** 19/30 (63%), 26/31 (84%), -33%, not calculated

**Q.** What about the “tumour outcome (control, treated, inhibition, significance)” value (Carcinogen: DIMETHYLNITROSAMINE, 62-75-9, 0.6% IN DIET BEGINNING 2 WK POST CARCINOGEN DOSE AND CONTINUING FOR 26 WK (STUDY DURATION: 120 WK), Strain/Sex: WISTAR/MALE, Target Tissue: Type of Lesion: KIDNEY: MESENCHYMAL TUMOR, Dose [Carcinogen]: 30 MG/KG ONCE) of the same compound?
**A.** 14/30 (47%), 14/31 (45%), 4%, not significant

**Q.** What about the “tumour outcome (control, treated, inhibition, significance)” value (Carcinogen: DIMETHYLNITROSAMINE, 62-75-9, 0.6% IN DIET BEGINNING 2 WK POST CARCINOGEN DOSE AND CONTINUING FOR 26 WK (STUDY DURATION: 120 WK), Strain/Sex: WISTAR/MALE, Target Tissue: Type of Lesion: KIDNEY: TUMOR, Dose [Carcinogen]: 30 MG/KG ONCE) of the same compound?
**A.** 26/30 (87%), 30/31 (97%), -11%, not significant
